Assays:
[1] = test system: A. niger 1133 m; experiment: Disc-diffusion antifungal assay; format: cell-based, Aspergillus niger; conditions: 40 µg/disc, pathogenic clinical isolate
[2] = test system: A. fumigatus VKM F-37; experiment: Disc-diffusion antifungal assay; format: cell-based, Aspergillus fumigatus; conditions: 40 µg/disc
[3] = test system: A. terreus 3 K; experiment: Disc-diffusion antifungal assay; format: cell-based; conditions: 40 µg/disc
[4] = test system: A. niger 1133 m; experiment: Broth two-fold microdilution MIC (CLSI); format: cell-based, Aspergillus niger; conditions: A. niger 1133 m clinical isolate; RPMI 1640 pH 7.0, 35 °C, 48 h
[5] = test system: A. terreus 497; experiment: Broth two-fold microdilution MIC (CLSI); format: cell-based; conditions: A. terreus 497 clinical isolate; RPMI 1640 pH 7.0, 35 °C, 48 h
[6] = test system: A. fumigatus VKM F-37; experiment: Broth two-fold microdilution MIC (CLSI); format: cell-based, Aspergillus fumigatus; conditions: A. fumigatus VKM F-37; RPMI 1640 pH 7.0, 35 °C, 48 h
[7] = test system: C. krusei 1447; experiment: Broth microdilution MIC and MFC (CLSI); format: cell-based
[8] = test system: C. laurentii 325m; experiment: Broth microdilution MIC and MFC (CLSI); format: cell-based, Cr. laurentii
[9] = test system: isolates of Aspergillus spp.; experiment: Broth microdilution MIC, ranges over mould isolates; format: cell-based; conditions: range over opportunistic and clinical isolates of Aspergillus spp. (Table 4)
[10] = test system: B16 (mouse melanoma cell line); experiment: MTT cytotoxicity assay; format: cell-based; conditions: 72 h, three experiments, each in triplicate
Experimental: (§1) Experiments for determining the cytotoxic activity of the compound in MTT assays were performed as previously described. The following tumor cell lines were used for this study: HCT-116 (colon cancer cell line), B16 (mouse melanoma cell line), K-562 (leukemia cell line), MDA-MB-231 (breast cancer line), and MCF-7 (breast cancer cell). Human postnatal fibroblasts were used as a normal cell line, and doxorubicin was used as a positive control. The cell lines were cultured in Dulbecco modified Eagle’s medium supplemented with 5% fetal calf serum, 2 mM Lglutamine, 100 U/mL penicillin, and […] streptomycin at 37 °C, 5% CO2 in a humidified atmosphere. Experiments were carried out on cells in the logarithmic phase of growth. The peptide was dissolved in DMSO as a 10 mM stock solution, followed by serial dilutions in water immediately before the experiment. Briefly, cells (5 × 10^3 in […] of culture medium) were plated in a 96-well plate and treated with 0.1% DMSO (blank control) or with […] of the peptide (0.10‒50 μM; each concentration in duplicate) for 72 h. After incubation with peptide, […] of aqueous MTT solution (3-(4,5-dimethylthiazol-2-yl)-2,5-diphenyltetrazolium bromide, 5 mg/mL) were added into each well for 2‒3 h. Formazan was dissolved in DMSO, and the absorbance at 570 nm was measured. The cytotoxicity at a given EmiA concentration was calculated as the percentage of absorbance in wells with peptide-treated cells compared to that of blank control cells (100%). The IC50 (50% growth inhibitory concentration) was defined as the concentration of EmiA that inhibited MTT conversion by 50%. All the experiments were repeated three times, each time in triplicate. EmiA was tested at a range of concentrations, 0.1‒10 μM.

[11] = test system: HCT-116 (colon cancer cell line); experiment: MTT cytotoxicity assay; format: cell-based; conditions: 72 h, three experiments, each in triplicate
Experimental: as §1

[12] = test system: HPF (human postnatal fibroblasts, normal cell line); experiment: MTT cytotoxicity assay; format: cell-based
Experimental: as §1

[13] = test system: MCF-7 (breast cancer cell); experiment: MTT cytotoxicity assay; format: cell-based; conditions: 72 h, three experiments, each in triplicate
Experimental: as §1

[14] = test system: MDA-MB-231 (breast cancer line); experiment: MTT cytotoxicity assay; format: cell-based; conditions: 72 h, three experiments, each in triplicate
Experimental: as §1

[15] = test system: K-562 (leukemia cell line); experiment: MTT cytotoxicity assay; format: cell-based; conditions: 72 h, three experiments, each in triplicate
Experimental: Experiments for determining the cytotoxic activity of the compound in MTT assays were performed as previously described [24]. The following tumor cell lines were used for this study: HCT-116 (colon cancer cell line), B16 (mouse melanoma cell line), K-562 (leukemia cell line), MDA-MB-231 (breast cancer line), and MCF-7 (breast cancer cell). […] The cell lines were cultured in Dulbecco modified Eagle’s medium supplemented with 5% fetal calf serum, 2 mM Lglutamine, 100 U/mL penicillin, and 100 mg/mL streptomycin at 37 °C, 5% CO2 in a humidified atmosphere. Experiments were carried out on cells in the logarithmic phase of growth. The peptide was dissolved in DMSO as a 10 mM stock solution, followed by serial dilutions in water immediately before the experiment. Briefly, cells (5 × 10^3 in 190 mL of culture medium) were plated in a 96-well plate and treated with 0.1% DMSO (blank control) or with 10 mM of the peptide (0.10‒50 μM; each concentration in duplicate) for 72 h. After incubation with peptide, 20 mL of aqueous MTT solution (3-(4,5-dimethylthiazol-2-yl)-2,5-diphenyltetrazolium bromide, 5 mg/mL) were added into each well for 2‒3 h. Formazan was dissolved in DMSO, and the absorbance at 570 nm was measured. […] All the experiments were repeated three times, each time in triplicate.

[16] = test system: human erythrocytes; experiment: Hemolytic activity; format: cell-based; conditions: for hemolytic activity (in words): concentrations of 0–20 μM
Experimental: Erythrocytes were isolated from the peripheral blood of healthy donors after incubation at 4 °C for 2–3 h. All the donors are males, 35–38 years old. All of them have approved to collect blood samples, and the authors have permissions filled. All the blood samples have been destroyed after the experiments finished. The red blood cell suspension (100 μL) was pelleted, washed twice with saline, then the pellet was resuspended in 500 μL saline or distilled water (positive control of hemolysis). The compounds were added (final concentration of 20 μM). The samples were incubated for 1 h at 37 °C and centrifuged at 2000 rpm for 1.5 min. The OD of supernatants was measured on a Multiscan spectrophotometer FC (Thermo Scientific, Waltham, MA, USA) at a wavelength of 540 nm. The percent hemolysis was calculated relative to the positive control, taken as 100%.
Erythrocytes were isolated from the human blood: On the day of the study, blood was taken from the donor’s cubital vein into a test tube with an anticoagulant. The blood was incubated at 4 °C for 2‒3 h. A suspension of erythrocytes (100 μL) was diluted with a physiological buffer (pH 7.2) to a total volume of 500 μL. Solutions of the test substances with an initial concentration of […] (DMSO) were diluted with a PBS buffer (1:10). The resulting solutions were introduced into Eppendorf tubes in the amounts required to create the studied concentration (5, 10, or 20 μM). A mixture of PBS with erythrocytes was added to a total volume of 200 μL. The control (C) was a mixture of erythrocytes with H2O (100% of hemolysis). The intact control solution (I) was a mixture of erythrocytes with the PBS and solvent (DMSO). The antibiotic gramicidin S (Gram S) was used as a control sample with active hemolysis. The mixture was incubated for 1 h at 37 °C. The measurement of the optical density of the supernatants was carried out on a BioTek ELx800 automatic microplate photometer (USA) at 570 nm. The optical density of the liquid above the sediment in the control sample with H2O was taken as 100%.

[17] = test system: HepG2 cell line; conditions: previous study; cited from earlier work
From the text: Accordingly, despite the high IC50 values for this molecule, fairly significant amounts of antibiotic are required to suppress the cell growth in vitro. The calculated therapeutic index value is sufficiently high due to a low cytotoxicity level for normal cells, which is an undeniable advantage over both pre-scorubicin and most other antitumor compou ...

Methyldecanoyl-MePro-AHMOD-Ala-Aib-Ile-Iva-βAla-Alaol-Glyol [EmiA, emericellipsin A, nonribosomal lipopeptaibol, major compound of E. alkalina VKPM F1428]
Zone of Inhibition [1]: 18 ± 0.27 mm
Zone of Inhibition [2]: 20 ± 0.3 mm
Zone of Inhibition [3]: 12 ± 0.25 mm
Minimal Inhibitory Concentration (MIC) [4]: 4 µg/mL
Minimal Inhibitory Concentration (MIC) [5]: 1 µg/mL
Minimal Inhibitory Concentration (MIC) [6]: 2 µg/mL
MFC ([7]; C. krusei 1447, lowest concentration causing 95% death): 2 µg/mL
MIC ([7]; C. krusei 1447 clinical isolate, RPMI 1640 pH 7.0, 35 °C, 24 h): 0.5 µg/mL
MIC ([8]; C. laurentii 325m clinical isolate, RPMI 1640 pH 7.0, 35 °C, 24 h): 0.5 µg/mL
MFC ([8]; C. laurentii 325m, lowest concentration causing 95% death): 0.5 µg/mL
MIC range [9]: 0.5 to 4 µg/mL
IC50 [10]: 16 ± 2.08 µM
IC50 [11]: 2300 ± 300 nM
IC50 ([12]; HPF normal fibroblasts, MTT, 72 h, three experiments, each in triplicate): 11.5 ± 1.5 µM
antiproliferative activity inferior to doxorubicin ([12]; interaction with PFH, relative to doxorubicin): 60 times
IC50 [13]: 11 ± 1.2 µM
IC50 [14]: 8 ± 1.04 µM
IC50 [15]: 1000 ± 140 nM
hemolysis ([16]; 20 μM, 1 h, 37 °C, relative to H2O control = 100%, OD 540 nm or 570 nm, triplicate, mean): approximately 12.6%
hemolytic activity (in words) [16]: no hemolytic activity
hemolytic activity (in words) ([16]; listed as Emericellipsin A): negligible hemolytic activity
EC50 [17]: 2800 nM

Source: paper PMC7924852, “The Emericellipsins A–E from an Alkalophilic Fungus Emericellopsis alkalina Show Potent Activity against Multidrug-Resistant Pathogenic Fungi” (Journal of Fungi, 2021)
